≈ marks a conversion by molar mass, not a printed value.
Experiments:
MRSA USA300 = test: MBC determination; assay type: cell-based, methicillin-resistant S. aureus; details: Staphylococcus aureus, 3-log reduction, 24 hour, 37° C., half strength MHB in PBS
Experimental: (§1) To determine MBC, bacteria were cultured in TSB (Staphylococcus), THB (Streptococcus) or Nutrient broth (P. aeruginosa and E. coli) by reaching exponential phase (OD600=0.5-0.8). […] After incubation, the number of viable bacteria was measured by counting CFU after spreading 10-fold serial dilutions of bacteria on suitable agar plates. MBC was determined as a 3-log reduction (99.9%) of viable bacteria after 24 hour incubation.
(§2) Antimicrobial activity of 6-HAP in vitro. To examine the specificity of 6-HAP for various bacteria, minimal bactericidal concentrations (MBCs) were determined according to dose-dependent killing curves at 24 hrs of incubation in vitro (Table 1). 6-HAP killed or suppressed growth of several major skin pathogens including GAS (NZ131), group B Streptococcus (GBS) (DK23), methicillin-sensitive S. aureus (ATCC35556), methicillin-resistant S. aureus (MRSA) strains (USA300 and Sanger252), Pseudomonas aeruginosa (P. aeruginosa) (ATCC14213) in vitro. […] S. epidermidis (ATCC12228) was also resistant to 6-HAP.

MRSA Sanger252 = test: MBC determination; assay type: cell-based, methicillin-resistant S. aureus; details: Staphylococcus aureus, 3-log reduction, 24 hour, 37° C., half strength MHB in PBS
Experimental: as §1, §2

[1] = tested on: NHEKs treated with mARC1 and mARC2 siRNA; test: Gene silencing of mARCs with siRNA, sensitivity to 6-HAP; assay type: cell-based, human; details: 6-HAP 10 μg/mL for 24 hrs, BrdU incorporation
Experimental: (a-b) Selective antiproliferative activity of 6-HAP against Pam212 squamous cell carcinoma, but not against normal keratinocytes. BrdU incorporation into Pam212 cells (b) or NHEKs (b) after 4-hr or 24-hr incubation, respectively, in suitable media containing indicated concentrations of 6-HAP or mitomycin C (10 μg/mL) (a). (c) Expression of mARC1 and mARC2 in NHEKs, squamous cell carcinoma (Pam212), melanoma (B16F10) and lymphoma cell lines (L5178). To compare relative expression level in each cells, data was shown as relative to GAPDH expression. (d) Expression of mARC1 and mARC2 in NHEKs treated with control siRNA, mARCI siRNA and mARC2 siRNA. (e) Effect of gene silencing with mARC1 and mARC2 siRNA on sensitivity to 6-HAP in NHEKs. NHEKs treated with each siRNA were incubated for 48 hrs and then incubated with 10 μg/mL of 6-HAP for 24 hrs.
Gene silencing of mARCs with siRNA. NHEK was cultured in EpiLife® media containing pre-designed siRNA for mARC1 or mARC2 (Thermo Fisher, Waltham, MA), and RNAiMAX® reagent for 24 hrs. Cells were maintained in EpiLife for 72 hrs, and incubated with 6-HAP (10 μg/mL) for 24 hrs. Anti-proliferative activity of 6-HAP was determined by measuring BrdU incorporation as described above.
In mammalian cells, mitochondrial […] reducing components (mARC) 1 and 2 have shown to be capable of reducing N-hydroxylated nucleobase analogs to canonical nucleobases. […]

P. acnes ATCC6919 = test: MBC determination; assay type: cell-based, Propionibacterium acnes; details: Cutibacterium acnes, 3-log reduction, 24 hour, 37° C., half strength MHB in PBS
P. aeruginosa ATCC14213 = test: MBC determination; assay type: cell-based; details: Pseudomonas aeruginosa, 3-log reduction, 24 hour, 37° C., half strength MHB in PBS
Experimental: as §1, §2

S. epidermidis ATCC12228 = test: MBC determination; assay type: cell-based; details: Staphylococcus epidermidis, 3-log reduction, 24 hour, 37° C., half strength MHB in PBS
Experimental: as §1, §2

E. coli ATCC25922 = test: MBC determination; assay type: cell-based; details: Escherichia coli, 3-log reduction, 24 hour, 37° C., half strength MHB in PBS
Experimental: as §1, §2

[2] = tested on: L5178Y tk+/- mouse lymphoma cells; test: Mutagenic activity at the thymidine kinase (tk) locus; assay type: cell-based; details: compared to vehicle
Experimental: Because some nucleobase analogs exert mutagenic activities due to their misrecognition of wrong bases, mutagenic activity of 6-HAP was determined by detecting mutagenic events at the thymidine kinase (tk) locus of L5178Y tk^+/− mouse lymphoma cells.

SMILES: ONc1ncnc2nc[nH]c12 [6-HAP, 6-N-hydroxyaminopurine]
- MBC (MRSA USA300): 6.25 µg/mL (≈ 41.4 µM)
- MBC (MRSA Sanger252): 0.781 µg/mL (≈ 5.17 µM)
- cellular sensitivity to 6-HAP after mARC1 and mARC2 gene silencing [1]: increased cellular sensitivity
- MBC (P. acnes ATCC6919): > 100 µg/mL
- MBC (P. aeruginosa ATCC14213): 1.56 µg/mL (≈ 10.3 µM)
- MBC (S. epidermidis ATCC12228): > 50 µg/mL
- MBC (E. coli ATCC25922): 50 µg/mL (≈ 331 µM)
- mutagenic activity, mutation frequency at tk locus [2]: did not detect a difference

— patent US12427151B2, “Compositions and method of treating cancer” (The Regents of the University of California, priority 2017, dated 2025)
